Assays:
barnyardgrass = assay: Test A pre-/postemergence herbicide test; type: in vivo, Echinochloa crus-galli
Summary of the method: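 Visual injury rating on a 0–100 scale (0 no effect, 100 complete control) versus untreated controls, about ten days after treatment in greenhouse. Pre: directed soil spray onto seeded sandy loam. Post: spray to runoff on plants 2–10 cm tall at one- to two-leaf stage.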

common ragweed = assay: Test C pre-/postemergence herbicide test; type: in vivo, Ambrosia elatior; set-up: key to Plant response rating, Ragweed: 0 = no effect, 100 = complete control; conditions: for Ragweed plant response rating: 500 g ai/ha
Summary of the method: (§1)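 Pre- and postemergence application, solvent/surfactant formulation; post at 1- to 4-leaf stage (2–18 cm). Greenhouse 12–14 d. Visual rating vs controls, 0 = no effect, 100 = complete control.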

pigweed = assay: Test C pre-/postemergence herbicide test; type: in vivo, Amaranthus retroflexus; conditions: for Pigweed plant response rating: 500 g ai/ha
Summary of the method: as §1

large crabgrass = assay: Test C pre-/postemergence herbicide test; type: in vivo, Digitaria sanguinalis; conditions: for Crabgrass, Large plant response rating: 500 g ai/ha
Summary of the method: as §1

[1] = system: common (oilseed) sunflower; assay: Test C pre-/postemergence herbicide test; type: in vivo, Helianthus annuus; conditions: for Sunflower plant response rating: Preemergence, 500 g ai/ha, scale 0 to 100, 0 no effect, 100 complete control
Summary of the method: as §1

eastern black nightshade = assay: Test C pre-/postemergence herbicide test; type: in vivo, Solanum ptycanthum; conditions: for Nightshade plant response rating: Preemergence, 500 g ai/ha, scale 0 to 100, 0 no effect, 100 complete control
Summary of the method: as §1

corn = assay: Test C pre-/postemergence herbicide test; type: in vivo, Zea mays; conditions: for Corn plant response rating: 500 g ai/ha
Summary of the method: as §1

cocklebur = assay: Test C pre-/postemergence herbicide test; type: in vivo, Xanthium strumarium; conditions: for Cocklebur plant response rating: 500 g ai/ha
Summary of the method: as §1

velvetleaf = assay: Test C pre-/postemergence herbicide test; type: in vivo, Abutilon theophrasti; conditions: for Velvetleaf plant response rating: 500 g ai/ha
Summary of the method: as §1

lambsquarters = assay: Test C pre-/postemergence herbicide test; type: in vivo, Chenopodium album; conditions: for Lambsquarters plant response rating: 500 g ai/ha
Summary of the method: as §1

[2] = Postemergence, 500 g ai/ha, 0 to 100 scale, 0 no effect, 100 complete control
[3] = Postemergence, 2000 g ai/ha, 0 to 100 scale, 0 no effect, 100 complete control
[4] = Preemergence, 2000 g ai/ha, visual rating, 0 to 100 scale (0 no effect, 100 complete control)
[5] = 125 g ai/ha, scale 0 (no effect) to 100 (complete control), visual, 12 to 14 days, preemergence
[6] = Postemergence, 250 g ai/ha, scale 0 to 100, 0 no effect, 100 complete control
[7] = Preemergence, scale 0 to 100, 0 no effect, 100 complete control
[8] = postemergence, 125 g ai/ha, scale 0 to 100
[9] = 250 g ai/ha, scale 0 to 100 (0 no effect, 100 complete control), visual, 12 to 14 days, preemergence
[10] = preemergence, 500 g ai/ha, visual injury, 0 to 100 scale (0 no effect, 100 complete control)
[11] = 62 g ai/ha, preemergence, scale 0 to 100
[12] = 250 g ai/ha, scale 0-100, preemergence

## CCn1nc(C(C)(C)C)cc1C(=O)Nc1cccc(SC(F)(F)F)c1 [Compound 130]
barnyardgrass; [2]
  Barnyardgrass plant response rating: 20
barnyardgrass; [3]
  Plant response rating, Barnyardgrass: 20
barnyardgrass; Preemergence, 500 g ai/ha, visual rating, 0 to 100 scale (0 no effect, 100 complete control)
  Barnyardgrass plant response rating: 40
barnyardgrass; [4]
  Barnyardgrass plant response rating: 30
Common ragweed; 62 g ai/ha, preemergence
  Plant response rating (0 = no effect, 100 = complete control), Ragweed: 0
Common ragweed; [5]
  Plant response rating, Ragweed: 10
Common ragweed; Postemergence, scale 0 to 100
  Ragweed plant response rating: 85
Common ragweed; [6]
  Plant response rating, Ragweed: 85
Common ragweed; [7]
  Ragweed plant response rating: 80
Common ragweed; [8]
  Plant response rating, Ragweed: 40
pigweed; 62 g ai/ha, preemergence
  Plant response rating (0 = no effect, 100 = complete control), Pigweed: 80
pigweed; [5]
  Plant response rating, Pigweed: 90
pigweed; Postemergence, scale 0 to 100
  Pigweed plant response rating: 100
pigweed; [6]
  Plant response rating, Pigweed: 100
pigweed; [7]
  Pigweed plant response rating: 100
pigweed; [8]
  Plant response rating, Pigweed: 100
Large crabgrass; [5]
  Plant response rating, Crabgrass, Large: 90
Large crabgrass; [9]
  Plant response rating, Crabgrass, Large: 95
Large crabgrass; Postemergence, scale 0 to 100
  Crabgrass, Large plant response rating: 90
Large crabgrass; [6]
  Plant response rating, Crabgrass, Large: 20
Large crabgrass; [7]
  Crabgrass, Large plant response rating: 95
[1]; 62 g ai/ha, preemergence
  Plant response rating (0 = no effect, 100 = complete control), Sunflower: 0
[1]; [5]
  Plant response rating, Sunflower: 0
[1]
  Sunflower plant response rating: 0
Eastern black nightshade; 62 g ai/ha, preemergence
  Plant response rating (0 = no effect, 100 = complete control), Nightshade: 30
Eastern black nightshade
  Nightshade plant response rating: 60
corn; 62 g ai/ha, preemergence
  Plant response rating (0 = no effect, 100 = complete control), Corn: 0
corn; [5]
  Plant response rating, Corn: 5
corn; [9]
  Plant response rating, Corn: 5
corn; Postemergence, scale 0 to 100
  Corn plant response rating: 50
corn; [6]
  Plant response rating, Corn: 45
corn; [7]
  Corn plant response rating: 10
corn; [8]
  Plant response rating, Corn: 45
cocklebur; 62 g ai/ha, preemergence
  Plant response rating (0 = no effect, 100 = complete control), Cocklebur: 0
cocklebur; [9]
  Plant response rating, Cocklebur: 70
cocklebur; Postemergence, scale 0 to 100
  Cocklebur plant response rating: 100
cocklebur; [6]
  Plant response rating, Cocklebur: 90
cocklebur; [7]
  Cocklebur plant response rating: 100
cocklebur; [8]
  Plant response rating, Cocklebur: 30
velvetleaf; [5]
  Plant response rating, Velvetleaf: 10
velvetleaf; Postemergence, scale 0 to 100
  Velvetleaf plant response rating: 85
velvetleaf; [6]
  Plant response rating, Velvetleaf: 40
velvetleaf; [7]
  Velvetleaf plant response rating: 100
velvetleaf; [8]
  Plant response rating, Velvetleaf: 30
lambsquarters; 62 g ai/ha, preemergence
  Plant response rating (0 = no effect, 100 = complete control), Lambsquarters: 10
lambsquarters; [5]
  Plant response rating, Lambsquarters: 30
lambsquarters; Postemergence, scale 0 to 100
  Lambsquarters plant response rating: 100
lambsquarters; [6]
  Plant response rating, Lambsquarters: 100
lambsquarters; [7]
  Lambsquarters plant response rating: 80
lambsquarters; [8]
  Plant response rating, Lambsquarters: 100

## CC(=NO)c1cccc(NC(=O)c2sc(C(C)(C)C)nc2C)c1 [Compound 195]
barnyardgrass; [2]
  Barnyardgrass plant response rating: 15
barnyardgrass; [3]
  Plant response rating, Barnyardgrass: 50
barnyardgrass; [4]
  Barnyardgrass plant response rating: 45
barnyardgrass; [10]
  Barnyardgrass plant response rating: 20
Common ragweed; [11]
  Plant response rating, Ragweed: 20
Common ragweed; [5]
  Plant response rating, Ragweed: 40
Common ragweed; [12]
  Plant response rating, Ragweed: 80
Common ragweed; [7]
  Ragweed plant response rating: 90
pigweed; [11]
  Plant response rating, Pigweed: 55
pigweed; [5]
  Plant response rating, Pigweed: 60
pigweed; [12]
  Plant response rating, Pigweed: 90
pigweed; [7]
  Pigweed plant response rating: 90
Large crabgrass; [11]
  Plant response rating, Crabgrass, Large: 0
Large crabgrass; [5]
  Plant response rating, Crabgrass, Large: 0
Large crabgrass; [12]
  Plant response rating, Crabgrass, Large: 5
Large crabgrass; [7]
  Crabgrass, Large plant response rating: 70
[1]; [11]
  Plant response rating, Sunflower: 0
[1]; [5]
  Plant response rating, Sunflower: 0
[1]; [12]
  Plant response rating, Sunflower: 0
[1]
  Sunflower plant response rating: 10
Eastern black nightshade; [11]
  Plant response rating, Nightshade: 0
Eastern black nightshade; [5]
  Plant response rating, Nightshade: 0
Eastern black nightshade; [12]
  Plant response rating, Nightshade: 0
Eastern black nightshade
  Nightshade plant response rating: 0
corn; [11]
  Plant response rating, Corn: 0
corn; [5]
  Plant response rating, Corn: 0
corn; [12]
  Plant response rating, Corn: 0
corn; [7]
  Corn plant response rating: 0
cocklebur; [11]
  Plant response rating, Cocklebur: 0
cocklebur; [5]
  Plant response rating, Cocklebur: 0
cocklebur; [12]
  Plant response rating, Cocklebur: 0
cocklebur; [7]
  Cocklebur plant response rating: 0
velvetleaf; [11]
  Plant response rating, Velvetleaf: 0
velvetleaf; [5]
  Plant response rating, Velvetleaf: 50
velvetleaf; [12]
  Plant response rating, Velvetleaf: 55
velvetleaf; [7]
  Velvetleaf plant response rating: 100
lambsquarters; [11]
  Plant response rating, Lambsquarters: 0
lambsquarters; [5]
  Plant response rating, Lambsquarters: 0
lambsquarters; [12]
  Plant response rating, Lambsquarters: 10
lambsquarters; [7]
  Lambsquarters plant response rating: 95

## CCNC(=O)c1cccc(NC(=O)c2sc(C(C)(C)C)nc2C)c1 [Compound 198]
barnyardgrass; [2]
  Barnyardgrass plant response rating: 45
barnyardgrass; [3]
  Plant response rating, Barnyardgrass: 80
barnyardgrass; [4]
  Barnyardgrass plant response rating: 90
barnyardgrass; [10]
  Barnyardgrass plant response rating: 55
Common ragweed; [11]
  Plant response rating, Ragweed: 50
Common ragweed; [5]
  Plant response rating, Ragweed: 80
Common ragweed; [12]
  Plant response rating, Ragweed: 95
Common ragweed; [7]
  Ragweed plant response rating: 100
pigweed; [11]
  Plant response rating, Pigweed: 100
pigweed; [5]
  Plant response rating, Pigweed: 100
pigweed; [12]
  Plant response rating, Pigweed: 100
pigweed; [7]
  Pigweed plant response rating: 100
Large crabgrass; [11]
  Plant response rating, Crabgrass, Large: 80
Large crabgrass; [5]
  Plant response rating, Crabgrass, Large: 85
Large crabgrass; [12]
  Plant response rating, Crabgrass, Large: 95
Large crabgrass; [7]
  Crabgrass, Large plant response rating: 95
[1]; [11]
  Plant response rating, Sunflower: 0
[1]; [5]
  Plant response rating, Sunflower: 0
[1]; [12]
  Plant response rating, Sunflower: 10
[1]
  Sunflower plant response rating: 20
Eastern black nightshade; [11]
  Plant response rating, Nightshade: 90
Eastern black nightshade; [5]
  Plant response rating, Nightshade: 95
Eastern black nightshade; [12]
  Plant response rating, Nightshade: 100
Eastern black nightshade
  Nightshade plant response rating: 100
corn; [11]
  Plant response rating, Corn: 0
corn; [5]
  Plant response rating, Corn: 0
corn; [12]
  Plant response rating, Corn: 0
corn; [7]
  Corn plant response rating: 0
cocklebur; [11]
  Plant response rating, Cocklebur: 0
cocklebur; [5]
  Plant response rating, Cocklebur: 0
cocklebur; [12]
  Plant response rating, Cocklebur: 0
cocklebur; [7]
  Cocklebur plant response rating: 10
velvetleaf; [11]
  Plant response rating, Velvetleaf: 5
velvetleaf; [5]
  Plant response rating, Velvetleaf: 80
velvetleaf; [12]
  Plant response rating, Velvetleaf: 80
velvetleaf; [7]
  Velvetleaf plant response rating: 100
lambsquarters; [11]
  Plant response rating, Lambsquarters: 85
lambsquarters; [5]
  Plant response rating, Lambsquarters: 100
lambsquarters; [12]
  Plant response rating, Lambsquarters: 100
lambsquarters; [7]
  Lambsquarters plant response rating: 100
